How the values were obtained:
Assay type in all cases: in vivo
[1] = test system: Viola tricolor (VIOTR); experiment: Herbicidal pre-emergence action, section C (Table C9); details: visual grading after ca. 3 weeks; for pest or weed control at 320 g/ha: Viola tricolor, pre-emergence, 504 h, read-out: pre-emergence activity against VIOTR in %
Excerpt: (§1) Seeds of mono- and dicotyledonous weed plants and crop plants were sown, in plastic or organic planting pots, in sandy loam and covered with soil. The compounds according to the invention, formulated in the form of wettable powders (WP) or as emulsifiable concentrates (EC), were applied to the surface of the covering soil as aqueous suspension or emulsion, with the addition of 0.5% of an additive, at an application rate of 600 l of water/ha (converted). Following treatment, the pots were placed in a greenhouse and kept under optimum growth conditions for the test plants. The visual grading of the damage to the test plants was carried out after ca. 3 weeks in comparison to untreated controls (herbicidal effect in percent (%): 100% effect=plants have died off, 0% effect=as control plants).

[2] = test system: Oryza sativa (ORYZA); experiment: Pre-emergence effects on crop plants, section D (Table D3); details: application rate 80 g/ha; visual grading after ca. 3 weeks
Excerpt: Seeds of mono- and dicotyledonous weed plants and crop plants were sown, in plastic or organic planting pots, in sandy loam and covered with soil. The compounds according to the invention, formulated in the form of wettable powders (WP) or as emulsifiable concentrates (EC), were applied to the surface of the covering soil as aqueous suspension or emulsion, with the addition of 0.5% of an additive, at an application rate of 600 l of water/ha (converted).
Following treatment, the pots were placed in a greenhouse and kept under optimum growth conditions for the test plants. The visual grading of the damage to the test plants was carried out after ca. 3 weeks in comparison to untreated controls (herbicidal effect in percent (%): 100% effect=plants have died off, 0% effect=as control plants).
Tables D1 to D5 below show the effects of various compounds of the general formula (I) according to Table 1 on various crop plants and an application rate corresponding to 320 g/ha or below obtained by the experimental procedure mentioned above in Biological Examples, Section C.

[3] = test system: Setaria viridis (SETVI); experiment: Herbicidal post-emergence action, section E (Table E8); details: application rate 320 g/ha, visual assessment ca. 3 weeks after spraying; for pest or weed control at 320 g/ha: Setaria viridis, 504 h, read-out: post-emergence activity against SETVI in %
Excerpt: (§2) Seeds of mono- and dicotyledonous weed plants and crop plants were sown, in plastic or organic planting pots, in sandy loam, covered with soil and grown in a greenhouse under controlled growth conditions. 2 to 3 weeks after sowing, the test plants were sprayed in the single-leaf stage. The compounds according to the invention, formulated in form of wettable powders (WP) or as emulsifiable concentrates (EC), were sprayed onto the green plant parts as aqueous suspension or emulsion, with the addition of 0.5% of an additive, at an application rate of 600 l of water/ha (converted). The test plants were placed in the greenhouse for ca. 3 weeks under optimum growth conditions, and then the effect of the preparations was assessed visually in comparison with untreated controls (herbicidal effect in percent (%): 100% effect=plants have died off, 0% effect=as control plants).

[4] = test system: Brassica napus (BRSNW); experiment: Post-emergence effects on crop plants, section F (Table F5); details: for crop plant damage (phytotoxicity) in % at 80 g/ha: Brassica napus, 504 h, read-out: post-emergence activity against BRSNW in %; for post-emergence activity against BRSNW in %: crop plant damage
How it was run: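 Sandy loam, greenhouse, controlled conditions. Spray at single-leaf stage (2–3 wk post-sowing); WP/EC aqueous suspension/emulsion + 0.5% additive, 600 l water/ha; rate ≤320 g/ha. Visual scoring ca. 3 wk post-spray vs untreated, % effect.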

[5] = test system: Alopecurus myosuroides (ALOMY); experiment: Herbicidal post-emergence action, section B (Table B2); details: application rate 1280 g/ha; rated visually about 3 weeks after treatment vs untreated controls; 100% = plants have died, 0% = like control plants
Experimental: (§3) Seeds of mono- and dicotyledonous weed plants were placed in plastic pots in sandy loam soil (doubly sown with in each case one species of mono- or dicotyledonous weed plants per pot), covered with soil and cultivated in a greenhouse under controlled growth conditions. 2 to 3 weeks after sowing, the test plants were treated at the one-leaf stage. The compounds of the invention, formulated in the form of wettable powders (WP) or as emulsion concentrates (EC), were applied onto the green parts of the plants as aqueous suspension or emulsion with addition of 0.5% additive at a water application rate of 600 liters per hectare (converted). After the test plants had been kept in the greenhouse under optimum growth conditions for about 3 weeks, the activity of the preparations was rated visually in comparison to untreated controls. For example, 100% activity=the plants have died, 0% activity=like control plants.

[6] = test system: Matricaria inodora (MATIN); experiment: Herbicidal post-emergence action, section B (Table B6); details: visual rating about 3 weeks after treatment vs untreated controls
Experimental: as §3

[7] = test system: Kochia scoparia (KCHSC); experiment: Herbicidal pre-emergence action, section C (Table C13); details: application rate 320 g/ha, visual grading after ca. 3 weeks; for pest or weed control at 320 g/ha: Bassia scoparia, pre-emergence, 504 h, read-out: pre-emergence activity against KCHSC in %
Excerpt: as §1

[8] = test system: Kochia scoparia (KCHSC); experiment: Herbicidal post-emergence action, section E (Table E11); details: visual assessment ca. 3 weeks after spraying; for pest or weed control at 80 g/ha: Bassia scoparia, 504 h, read-out: post-emergence activity against KCHSC in %
Excerpt: as §2

[9] = test system: Lolium rigidum (LOLRI); experiment: Herbicidal post-emergence action, section E (Table E6); details: Lolium rigidum, 504 h, application rate 320 g/ha, visual assessment ca. 3 weeks after spraying, read-out: post-emergence activity against LOLRI in %
Excerpt: as §2

[10] = test system: Brassica napus (BRSNW); experiment: Pre-emergence effects on crop plants, section D (Table D5); details: application rate 80 g/ha; visual grading after ca. 3 weeks
How it was run: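 Read-out: visual percent injury versus untreated controls at ca. 3 weeks (0% as control, 100% dead). Treatment: aqueous WP/EC suspension or emulsion with 0.5% additive, 600 l/ha, on soil covering seeds in sandy loam, at 320 g/ha or below, under optimum greenhouse conditions.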

SMILES: CC(C)C(=O)N1C[S+]([O-])c2cc(Br)c(-c3ccccc3)nc21 (centres unmarked) [Example I-067]
- pest or weed control at 320 g/ha ([1]; application rate 320 g/ha): 100%
- pre-emergence activity against ORYZA in % (crop plant damage) [2]: 20%
- pest or weed control at 320 g/ha [3]: 80%
- crop plant damage (phytotoxicity) in % at 80 g/ha ([4]; application rate 80 g/ha): 0%

SMILES: CCS(=O)(=O)N1C[S+]([O-])c2cc(C)c(-c3ccccc3C)nc21 (centres unmarked) [Example I-074]
- pest or weed control at 320 g/ha ([1]; application rate 320 g/ha): 90%

SMILES: Cc1cc2c(nc1-c1ccccc1F)N(C(=O)C1(C)CC(Cl)=NO1)CS2 (centres unmarked) [Example I-083]
- post-emergence activity against ALOMY [5]: 90%
- pre-emergence activity against VIOTR in % ([1]; application rate 80 g/ha): 90%
- pre-emergence activity against ORYZA in % (crop plant damage) [2]: 20%
- post-emergence activity against SETVI in % [3]: 80%
- post-emergence activity against MATIN in % ([6]; application rate 320 g/ha): 90%

SMILES: Cc1cc2c(nc1-c1cccc(C)c1F)NCS2 [Example I-113]
- post-emergence activity against ALOMY [5]: 90%
- post-emergence activity against MATIN in % ([6]; application rate 1280 g/ha): 90%
- pre-emergence activity against KCHSC in % [7]: 80%
- post-emergence activity against BRSNW in % ([4]; application rate 320 g/ha): 20%

SMILES: Cc1cc2c(nc1-c1ccccc1F)N(S(=O)(=O)Cc1ccc(F)cc1)CS2 [Example I-122]
- post-emergence activity against ALOMY [5]: 90%
- pre-emergence activity against VIOTR in % ([1]; application rate 320 g/ha): 80%
- post-emergence activity against KCHSC in % ([8]; application rate 80 g/ha): 80%
- post-emergence activity against SETVI in % [3]: 80%
- post-emergence activity against MATIN in % ([6]; application rate 1280 g/ha): 90%
- pre-emergence activity against KCHSC in % [7]: 90%
- post-emergence activity against BRSNW in % ([4]; application rate 80 g/ha): 0%

SMILES: CCOCCS(=O)(=O)N1C[S+]([O-])c2cc(C)c(-c3ccccc3F)nc21 (centres unmarked) [Example I-127]
- pest or weed control at 80 g/ha ([8]; application rate 80 g/ha): 90%
- pest or weed control at 320 g/ha [3]: 80%
- pest or weed control at 320 g/ha ([6]; Tripleurospermum inodorum, post-emergence, 504 h, application rate 320 g/ha, read-out: post-emergence activity against MATIN in %): 90%
- pest or weed control at 320 g/ha [7]: 90%
- pest or weed control at 320 g/ha [9]: 80%

SMILES: Cc1ccccc1-c1nc2c(cc1C)SCN2C(=O)C1(C)CC(Cl)=NO1 (centres unmarked) [Example I-137]
- post-emergence activity against KCHSC in % ([8]; application rate 80 g/ha): 90%
- post-emergence activity against MATIN in % ([6]; application rate 1280 g/ha): 90%
- pre-emergence activity against KCHSC in % [7]: 100%

SMILES: CC1(C(=O)N2CSc3cc(Br)c(-c4ccccc4)nc32)CC(Cl)=NO1 (centres unmarked) [Example I-139]
- post-emergence activity against KCHSC in % ([8]; application rate 320 g/ha): 90%
- pre-emergence activity against KCHSC in % [7]: 90%

SMILES: CC1(C(=O)N2CSc3cc(Br)c(-c4ccccc4Cl)nc32)CC(Cl)=NO1 (centres unmarked) [Example I-141, [6-bromo-5-(2-chlorophenyl)[1,3]thiazolo[4,5-b]pyridin-3(2H)-yl](3-chloro-5-methyl-4,5-dihydro-1,2-oxazol-5-yl)methanone]
- pre-emergence activity against BRSNW in % (crop plant damage) [10]: 20%
- pest or weed control at 80 g/ha ([8]; application rate 80 g/ha): 80%
- pest or weed control at 320 g/ha [7]: 90%
- crop plant damage (phytotoxicity) in % at 80 g/ha ([4]; application rate 80 g/ha): 20%

— patent publication US20240381872A1, “SUBSTITUTED 2,3-DIHYDRO[1,3]THIAZOLO[4,5-B]PYRIDINES, SALTS THEREOF AND THEIR USE AS HERBICIDALLY ACTIVE SUBSTANCES” (BAYER AKTIENGESELLSCHAFT, priority 2021, published 2024)
